Drawing on patent publication US12030903B2, “Antiviral compounds” (Gilead Sciences, Inc., priority 2020, dated 2024), this text covers EC50 and CC50 for 13 molecules.

One data set deals with RSV strain A2. The experiment in a line: RSV HEp-2 EC50 (infectious cytopathic cell protection assay). The note with it: human respiratory syncytial virus, HEp-2, 96 h, read-out: RSV Hep-2 EC50. The data set is classed as cell-based, RSV strain A2; HEp-2 cells. As to the method:
Example 86. RSV HEp-2 EC50
Antiviral activity against RSV is determined using an infectious cytopathic cell protection assay in HEp-2 cells. In this assay, compounds inhibiting viral infection and/or replication produce a cytoprotective effect against the virus-induced cell killing that can be quantified using a cell viability reagent. The techniques used here are novel adaptations of methods described in published literature (Chapman et al., Antimicrob Agents Chemother. 2007, 51(9):3346-53.)
HEp-2 cells are obtained from ATCC (Manassas, VI) and maintained in MEM media supplemented with 10% fetal bovine serum and penicillin/streptomycin. Cells are passaged twice a week and kept at subconfluent stage. Commercial stock of RSV strain A2 (Advanced Biotechnologies, Columbia, MD) is titered before compound testing to determine the appropriate dilution of the virus stock that generates desirable cytopathic effect in HEp-2 cells.
For antiviral tests, HEp-2 cells are grown in large cell culture flasks to near confluency but not fully so. The compounds to be tested are prediluted in DMSO in 384-well compound dilution plates, either in an 8 or 40 sample per plate standardized dose response format. 3-fold serial dilution increments of each test compound are prepared in the plates and test samples are transferred via acoustic transfer apparatus (Echo, Labcyte) at 100 nL per well into cell culture assay 384-well plates. Each compound dilution is transferred in single or quadruplicate samples into dry assay plates, which are stored until assay is ready to go. The positive and negative controls are laid out in opposite on ends of the plate in vertical blocks (1 column).
Subsequently, an infectious mixture is prepared using an appropriate dilution of virus stock previously determined by titration with cells at a density of 50,000/mL and 20 uL/well is added to test plates w/compounds via automation (uFlow, Biotek). Each plate includes negative and positive controls (16 replicates each) to create 0% and 100% virus inhibition standards, respectively. Following the infection with RSV, testing plates are incubated for 4 days in a 37° C. cell culture incubator. After the incubation, a cell viability reagent, Cell TiterGlo (Promega, Madison, WI) is added to the assay plates, which are incubated briefly, and a luminescent readout is measured (Envision, Perkin Elmer) in all the assay plates. The RSV-induced cytopathic effect, percentage inhibition, is determined from the levels of remaining cell viability. […] Various potent anti-RSV tool compounds are used as positive controls for antiviral activity.
On the technique in general: Damage to the host cells serves as the signal in cytopathic effect assays.

The test system of data set [1] is Dengue serotype 2 New Guinea C (NGC) strain. The experiment in a line: DENV-2 Huh-7 EC50 (qPCR of viral RNA in infected Huh7 cells). It is filed as cell-based. The note with it: Dengue virus, DENV2, Huh-7, Huh7 cells infected with Dengue serotype 2 NGC, MOI=0.1, 48 hours. As to the method:
Huh7 (Human hepatocarcinoma 7) cells were maintained in 10% FCS-containing DMEM complete media. On the day of the assay, cells were trypsinized (0.1% Trypsin-EDTA), washed and infected for 2 hours in serum-free DMEM with Dengue serotype 2 New Guinea C (NGC) strain at MOI=0.1 with gentle agitation at 37° C. After 2 hours, cells were washed with serum-free media and suspended in 10% FCS-containing DMEM (Gibco, supplemented with sodium pyruvate, NEAA, Penicillin-Streptomycin). 10^5 cells were plated in triplicate in 96-well plates with compounds dispensed at graded doses (Hewlett-Packard D300 Digital Dispenser). All wells were normalized to 0.25% DMSO. At 48 hours, cells were washed with 1× PBS and all supernatants removed. Total RNA was extracted using RNEasy 96 plates (Qiagen) and used to generate first-strand cDNA using XLT cDNA 5× Supermix (QuantaBio). cDNA was used as a template in a Taqman qPCR duplex reaction specific to DENV2 viral and GAPDH gene expression. EC50 values were determined using Prism Graphpad software, with normalization to a positive control and no compound negative control wells.

Data set [2] can be described thus: HEp-2 CC50 (cytotoxicity in uninfected HEp-2 cells). It is filed as cell-based. The note with it: human, CellTiter Glo. As to the method: Instead, an uninfected cell mixture at the same density is added at 20 uL/well to plates containing prediluted compounds, also at 100 nL/sample. Assay plates are then incubated for 4 days followed by a cell viability test using the same CellTiter Glo reagent addition and measurement of luminescent readouts. Untreated cell and cells treated at 2 μM puromycin (Sigma, St. Louis, MO) serve as 100% and 0% cell viability control, respectively.
In general terms: ATP-based viability assays read luminescence as a measure of living cells.

Data set [3] can be described thus: Huh-7 CC50 (CellTiter Glo viability). The data set is classed as cell-based, Human. The note with it: human, Huh7 hepatocarcinoma cells. The method, then:
Human hepatocarcinoma 7 (Huh7) cells were maintained in 10% FCS-containing complete DMEM. On day of assay, cells were trypsinized with 0.1% Trypsin-EDTA, washed and cultured in triplicate at 1-2×10^4 cells/well in 96-well plates with compounds dispensed at graded doses (Hewlett-Packard D300 Digital Dispenser). All wells were normalized to 0.25% DMSO. After 48 hours, CellTiter Glo (Promega) was added and incubated for 10 minutes at room temp before reading on a luminometer. % viability curves were calculated against no compound and no cell control wells. CC50 values were determined using Prism Graphpad software.

Broadly, the EC50 is the concentration at which the effect is half-maximal. The CC50 is the concentration at which the toxic effect on the cells reaches its halfway point. Read a low CC50 as harm at low concentration. Consider `CCOC(=O)[C@H](C)NP(=O)(OC[C@@]1(CF)O[C@@H](c2ccc3c(N)ncnn23)[C@H](O)[C@@H]1O)Oc1ccc(C(C)(C)C)cc1` (mixture of isomers) [Example 47, ethyl ((((2R,3S,4R,5S)-5-(4-aminopyrrolo[2,1-f][1,2,4]triazin-7-yl)-2-(fluoromethyl)-3,4-dihydroxytetrahydrofuran-2-yl)methoxy)(4-(tert-butyl)phenoxy)phosphoryl)-L-alaninate], for which the concentration giving a half-maximal response (EC50) in the data set with RSV strain A2 was 0.389 µM; in data set [1] it was 0.65 µM. The molecule also came in with a CC50 at 4 days in data set [2] of 65.9 µM. The molecule further returned a CC50 at 48 h in data set [3] of 21.4 µM.
Regarding `CCC(=O)O[C@H]1[C@H](c2ccc3c(N)ncnn23)O[C@](CF)(CO[P@@](=O)(N[C@@H](C)C(=O)OCC(CC)CC)Oc2ccccc2)[C@H]1OC(=O)CC` (single isomer, unassigned) [Example 61], the EC50 in the data set on RSV strain A2 amounted to 0.855 µM; in data set [1], 0.568 µM. Also, in data set [2], it took 19.1 µM to reach half-maximal cytotoxicity (CC50 at 4 days). This molecule also showed a cytotoxic concentration (CC50) at 48 h in data set [3] of 15 µM.
Turning to `CCC(CC)COC(=O)[C@H](C)N[P@](=O)(OC[C@@]1(CF)O[C@@H](c2ccc3c(N)ncnn23)[C@H](OC(=O)C(C)C)[C@@H]1OC(=O)C(C)C)Oc1ccccc1` (single isomer, unassigned) [Example 62], the figures for the EC50 (in the data set on RSV strain A2; in data set [1]) were 10.1 µM and 0.662 µM, respectively. Further, in data set [3], the CC50 at 48 h came to 8.09 µM.
With `CC(C)C(=O)O[C@H]1[C@H](c2ccc3c(N)ncnn23)O[C@](CF)(CO[P@@](=O)(N[C@@H](C)C(=O)OC2COC2)Oc2ccccc2)[C@H]1OC(=O)C(C)C` (single isomer, unassigned) [Example 73], the half-maximal effective concentration (EC50) in data set [1] is 0.302 µM. The molecule further had a CC50 at 48 h in data set [3] of 9.34 µM.
Regarding `CCC(CC)COC(=O)[C@H](C)NP(=O)(OC[C@@]1(CCl)O[C@@H](c2ccc3c(N)ncnn23)[C@H](O)[C@@H]1O)Oc1ccccc1` (stereo partly drawn) [Comp. Ex. 1, 2-ethylbutyl ((((2R,3S,4R,5S)-5-(4-aminopyrrolo[2,1-f][1,2,4]triazin-7-yl)-2-(chloromethyl)-3,4-dihydroxytetrahydrofuran-2-yl)methoxy)(phenoxy)phosphoryl)-L-alaninate, reference compound], the concentration giving a half-maximal response (EC50) in data set [1] worked out at 2.33 µM.
Regarding `CCCCCCOC(=O)[C@H](C)NP(=O)(OC[C@@]1(CF)O[C@@H](c2ccc3c(N)ncnn23)[C@H](O)[C@@H]1O)Oc1ccccc1` (stereo partly drawn) [Example 17, hexyl ((((2R,3S,4R,5S)-5-(4-aminopyrrolo[2,1-f][1,2,4]triazin-7-yl)-2-(fluoromethyl)-3,4-dihydroxytetrahydrofuran-2-yl)methoxy)(phenoxy)phosphoryl)-L-alaninate], the EC50 in the data set on RSV strain A2 was found to be 0.516 µM; in data set [1], 0.51 µM. The 50% cytotoxic concentration (CC50) at 4 days in data set [2] is more than 100 µM. Besides, the CC50 at 48 h in data set [3] is more than 25 µM.
With `CC(=O)O[C@H]1[C@H](c2ccc3c(N)ncnn23)O[C@](CF)(CO[P@@](=O)(N[C@@H](C)C(=O)OC(C)C)Oc2ccccc2)[C@H]1OC(C)=O` [Example 20, (2R,3S,4S,5S)-5-(4-aminopyrrolo[2,1-f][1,2,4]triazin-7-yl)-2-(fluoromethyl)-2-((((S)-(((S)-1-isopropoxy-1-oxopropan-2-yl)amino)(phenoxy)phosphoryl)oxy)methyl) tetrahydrofuran-3,4-diyl diacetate], the EC50 in the data set with RSV strain A2 was determined as 3.18 µM; in data set [1] it was 2.57 µM. This molecule also yielded a half-maximal cytotoxic concentration (CC50) at 4 days in data set [2] of more than 100 µM. The same molecule gave a CC50 at 48 h in data set [3] of more than 25 µM.
The like results for `C[C@H](NP(=O)(OC[C@@]1(CF)O[C@@H](c2ccc3c(N)ncnn23)[C@H](O)[C@@H]1O)Oc1ccccc1)C(=O)OCC(C)(C)O` (stereo partly drawn) [Example 26, 2-hydroxy-2-methylpropyl ((((2R,3S,4R,5S)-5-(4-aminopyrrolo[2,1-f][1,2,4]triazin-7-yl)-2-(fluoromethyl)-3,4-dihydroxytetrahydrofuran-2-yl)methoxy)(phenoxy)phosphoryl)-L-alaninate] were, in that order, 39.3 µM, more than 24 µM, more than 100 µM and more than 25 µM.
With `CO[C@@H](C)COC(=O)[C@H](C)NP(=O)(OC[C@@]1(CF)O[C@@H](c2ccc3c(N)ncnn23)[C@H](O)[C@@H]1O)Oc1ccccc1` (stereo partly drawn) [Example 30, (S)-2-methoxypropyl ((((2R,3S,4R,5S)-5-(4-aminopyrrolo[2,1-f][1,2,4]triazin-7-yl)-2-(fluoromethyl)-3,4-dihydroxytetrahydrofuran-2-yl)methoxy)(phenoxy)phosphoryl)-L-alaninate], in the data set with RSV strain A2, the half-maximal effective concentration (EC50) worked out at 4.13 µM. The CC50 at 4 days in data set [2] was more than 100 µM.
With `C[C@H](NP(=O)(OC[C@@]1(CF)O[C@@H](c2ccc3c(N)ncnn23)[C@H](O)[C@@H]1O)Oc1ccccc1)C(=O)O[C@@H]1CCN(C)C1` (stereo partly drawn) [Example 35, (R)-1-methylpyrrolidin-3-yl ((((2R,3S,4R,5S)-5-(4-aminopyrrolo[2,1-f][1,2,4]triazin-7-yl)-2-(fluoromethyl)-3,4-dihydroxytetrahydrofuran-2-yl)methoxy) (phenoxy)phosphoryl)-L-alaninate], the EC50 with RSV strain A2 is 42.8 µM; in data set [1], more than 25 µM. In data set [2], this molecule displayed a CC50 at 4 days of more than 100 µM. For the same molecule, the CC50 at 48 h in data set [3] was more than 25 µM.
As for `CO[C@H](C)COC(=O)[C@H](C)NP(=O)(OC[C@@]1(CF)O[C@@H](c2ccc3c(N)ncnn23)[C@H](O)[C@@H]1O)Oc1ccccc1` (stereo partly drawn) [Example 39, (R)-2-methoxypropyl ((((2R,3S,4R,5S)-5-(4-aminopyrrolo[2,1-f][1,2,4]triazin-7-yl)-2-(fluoromethyl)-3,4-dihydroxytetrahydrofuran-2-yl)methoxy)(phenoxy)phosphoryl)-L-alaninate], in the data set with RSV strain A2, the EC50 was 2.47 µM. The molecule further gave a 50% cytotoxic concentration (CC50) at 4 days in data set [2] of more than 100 µM.
`C[C@H](NP(=O)(OC[C@@]1(CF)O[C@@H](c2ccc3c(N)ncnn23)[C@H](O)[C@@H]1O)Oc1ccccc1)C(=O)OC1CCOCC1` (stereo partly drawn) [Example 64, tetrahydro-2H-pyran-4-yl ((((2R,3S,4R,5S)-5-(4-aminopyrrolo[2,1-f][1,2,4]triazin-7-yl)-2-(fluoromethyl)-3,4-dihydroxytetrahydrofuran-2-yl)methoxy)(phenoxy)phosphoryl)-L-alaninate]: the EC50 in data set [1] was 2 µM. For the same molecule, the CC50 at 48 h in data set [3] was more than 25 µM.
Turning to `CCC(CC)COC(=O)[C@H](C)N[P@](=O)(OC[C@@]1(CF)O[C@@H](c2ccc3c(NC(=O)c4ccccc4)ncnn23)[C@H](O)[C@@H]1O)Oc1ccccc1` [Example 75, 2-ethylbutyl ((S)-(((2R,3S,4R,5S)-5-(4-benzamidopyrrolo[2,1-f][1,2,4]triazin-7-yl)-2-(fluoromethyl)-3,4-dihydroxytetrahydrofuran-2-yl)methoxy)(phenoxy)phosphoryl)-L-alaninate], the midpoint of the response in data set [1], the EC50, lay at 0.175 µM.
